By IC50 is commonly meant the midpoint of a concentration-inhibition curve.

Here are results for 9 molecules from patent US20240417408A1, “SMALL MOLECULE INHIBITORS OF KRAS G12C MUTANT” (MERCK SHARP & DOHME CORP., priority 2021, published 2024).

Assay [1] deals with T1, Recombinant KRAS G12C mutant protein (amino acids 1-169, SEQ ID NO: 1) (Homo sapiens, UniProt P01116, G12C).
T1 construct: His6 (N); TEV protease site (ENLYFQG; named from own knowledge) (N); made in house; host or cells: E. coli
T1 sequence (P01116 with tags, fused parts or gaps isoform P01116-2 G12C): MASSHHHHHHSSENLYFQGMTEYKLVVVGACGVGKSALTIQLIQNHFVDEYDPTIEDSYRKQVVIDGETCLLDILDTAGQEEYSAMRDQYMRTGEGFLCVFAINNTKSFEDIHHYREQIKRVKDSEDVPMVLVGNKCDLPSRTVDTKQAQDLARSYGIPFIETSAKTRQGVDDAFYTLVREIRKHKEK
The assay can be described thus: Test Example 1: inhibitory activity on KRAS G12C nucleotide (GDP-GTP) exchange reaction in vitro. As to conditions: BODIPY FL GDP-bound KRAS G12C incubated with compound at 25° C. for 1 hour, then SOS1 and GMPPNP, read-out: GNE IC50. It is filed as biochemical. On the procedure:
Test Example 1: Evaluation of inhibitory activity of compounds on KRAS G12C nucleotide (GDP-GTP) exchange reaction in vitro
Recombinant KRAS G12C mutant protein (amino acids 1-169, SEQ ID NO: 1) and cleaved recombinant SOS1 (amino acids 564-1049, SEQ ID NO:2) proteins were expressed in E. coli and purified by affinity chromatography.
To prepare BODIPY FL GDP-bound KRAS G12C protein, 50 μM KRAS G12C protein was incubated with 0.5 mM BODIPY FL GDP in a loading buffer (20 mM Tris-HCl (pH 7.5), 50 mM NaCl, 1 mM DTT and 2.5 mM EDTA) for 1 hour on ice. After the incubation, MgCl2 was added to a final concentration of 10 mM, followed by incubation at room temperature for 30 minutes. The mixture was allowed to pass through a NAP-5 column to remove free nucleotides and purified BODIPY FL GDP-bound KRAS G12C protein was used for compound evaluation.
For the measurement of the inhibitory activity of compounds on GDP-GTP exchange rate of recombinant KRAS G12C, BODIPY FL GDP-bound KRAS G12C protein was incubated with various concentrations of compound in a reaction buffer (20 mM Tris-HCl (pH 7.5), 100 mM NaCl, 1 mM MgCl2, 2 mM DTT, 0.1% Tween 20) at 25° C. for 1 hour. After the incubation, recombinant SOS1 and Guanosine-5′-[(β,γ)-imido]triphosphate, Tetralithium salt (GMPPNP) (Jena Bioscience GmbH) were added and incubated at room temperature for 30 minutes to proceed SOS1-dependent GDP-GTP exchange reaction on KRAS G12C. Replacement of BODIPY FL GDP by GMPPNP was measured by calculating the ratio of fluorescence intensities of BODIPY FL before and after the exchange reaction. Inhibition % was calculated by setting the fluorescence ratio from the reaction without test compound (DMSO control) and the fluorescence ratio from the reaction without SOS1 and GMPPNP as 0% and 100% inhibition, respectively. IC50 values were calculated from dose titration curve using curve fitting by XLfit software (IDBS).

Assay [2] concerns the target T2, interaction between KRAS G12C and cRAF-RBD (Homo sapiens, UniProt P01116, G12C).
T2 construct: TEV protease site (ENLYFQG); made in house; host or cells: E. coli
Put plainly: Test Example 2: inhibitory activity on interaction between KRAS G12C and cRAF (Alpha technology). Format: binding. Conditions: GMPPNP-bound KRAS G12C incubated with compound at 25° C. for 1 hour, then cRAF-RBD. On the procedure: Test Example 2: Evaluation of Inhibitory Activity of Compounds on Interaction Between KRAS G12C and cRAF (In Vitro)
Interaction between recombinant KRAS G12C mutant protein (SEQ ID NO: 1) and cRAF RAS-binding domain (cRAF-RBD, amino acids 50-132, Jena Biosciences GmbH) was measured using Alpha technology (PerkinElmer Inc.).
Recombinant KRAS G12C protein with an N-terminal His-tag was expressed in E. coli and purified by affinity chromatography. To prepare GTP-bound form and GDP-bound form of KRAS G12C protein, 50 μM KRAS G12C protein was incubated with 1 mM GMPPNP (Jena Bioscience GmbH) and 1 mM GDP, respectively, in a loading buffer (20 mM Tris-HCl (pH 7.5), 50 mM NaCl, 1 mM DTT and 2.5 mM EDTA) for 1 hour on ice. After the incubation, MgCl2 was added to a final concentration of 10 mM, followed by incubation at room temperature for 30 minutes. The mixture was allowed to pass through a NAP-5 column to remove free nucleotides and purified, and the resultant nucleotide-bound KRAS G12C protein was used for compound evaluation.
For the measurement of the inhibitory activity of compounds on interaction between KRAS G12C and cRAF-RBD, GMPPNP-bound KRAS G12C protein was incubated with various concentrations of compound in a reaction buffer (20 mM Tris-HCl (pH 7.5), 100 mM NaCl, 1 mM MgCl2, 1 mM TCEP, 0.1% Tween 20) at 25° C. for 1 hour. After the incubation, recombinant cRAF-RBD and Alpha detection reagents were added and incubated at room temperature for 1.5 hours for binding. Interaction of KRAS G12C and cRAF-RBD was monitored by measuring Alpha signal. Inhibition % was calculated using the signal from the reaction without test compound (DMSO control) as 0% inhibition and the signal from the reaction using GDP-bound KRAS G12C in place of GMPPNP-bound KRAS G12C as 100% inhibition. IC50 values were calculated from dose titration curve using curve fitting by XLfit software (IDBS).

In the next assay the test system is MIA PaCa-2 cells. Put plainly: Test Example 3: growth inhibition activity on KRAS-G12C mutant cell line (MIA PaCa-2). It is filed as cell-based. Conditions: Homo sapiens, 72 h, MIA PaCa-2, 3-day culture, CellTiter-Glo 3D, read-out: CTX MiaPaCa IC50. On the procedure:
Test Example 3: Assay of Growth Inhibition Activity on KRAS-G12C Mutant Cell Line (MIA PaCa-2) (In Vitro)
MIA PaCa-2 cells (provided by Sumitomo Dainippon Pharma Co., Ltd.), which are a KRAS-G12C mutant human pancreas cancer cell line, were suspended in a 10% fetal bovine serum-containing RPMI1640 medium (manufactured by Fujifilm Wako Pure Chemical Corporation.). The cell suspension was seeded into each well of a 384-well U bottom microplate and cultured in an incubator containing 5% CO2 gas at 37° C. for 1 day. The compounds obtained in the Examples section were used as test compounds and were dissolved in DMSO, respectively, and each test compound was diluted with DMSO to give a concentration 500 times the final concentration. The resultant solution of the test compound in DMSO was diluted with the medium used for suspending cells and added to each well of the cell-culture plate to give a DMSO final concentration of 0.2%, followed by culture in an incubator containing 5% CO2 gas at 37° C. for another 3 days. The cell count after 3-day culture in the presence of the test compound was measured using CellTiter-Glo 3D Reagent (manufactured by Promega Corporation). To all cells were added with CellTiter-Glo 3D Reagent and mixed for 10 minutes. 30 minutes after mixing, luminescence was measured by a plate reader. The growth inhibition rate was calculated from the following equation, and the concentration of the test compound at which 50% inhibition was achieved (IC50 (nM)) was determined.
[formula] • T: the emission intensity in a well into which a test compound was added. • C: the emission intensity in a well into which a test compound was not added.
For orientation: In ATP-based viability assays light output follows the ATP content of the culture.

T2 sequence (P01116 with tags, fused parts or gaps isoform P01116-2 G12C): as above

As to `C#Cc1cccc2cc(O)cc([C@@H]3Cc4nc(OCC5(CN6CCOCC6)CC5)nc(N5CCN(C(=O)/C=C/CN6CCC(OC)CC6)[C@@H](CC#N)C5)c4CO3)c12` [Example 1, 2-((S)-4-((S)-7-(8-ethynyl-3-hydroxynaphthalen-1-yl)-2-((1-(morpholinomethyl)cyclopropyl)methoxy)-7,8-dihydro-5H-pyrano[4,3-d]pyrimidin-4-yl)-1-((E)-4-(4-methoxypiperidin-1-yl)but-2-enoyl)piperazin-2-yl)acetonitrile], the IC50 is 1.02 nM in assay [1], 25.4 nM in assay [2] and 7.15 nM with MIA PaCa-2 cells.

For the molecule `CO[C@H]1CC[C@H](NC/C=C/C(=O)N2CCN(c3nc(OC[C@@H]4CCCN4C)nc4c3COC(c3cccc5ccccc35)C4)C[C@@H]2CC#N)CC1` (stereo partly drawn) [Example 2, 2-((2S)-1-((E)-4-(((1r,4S)-4-methoxycyclohexyl)amino)-but-2-enoyl)-4-(2-(((S)-1-methylpyrrolidin-2-yl)meth-oxy)-7-(naphthalen-1-yl)-7,8-dihydro-5H-pyrano[4,3-d]pyrimidin-4-yl)piperazin-2-yl)acetonitrile], the IC50 in assay [1] amounted to 3.53 nM; in assay [2], 43700 nM; with MIA PaCa-2 cells, 111 nM.

Take `CN1CCC[C@H]1COc1nc2c(c(N3CCN(C(=O)/C=C/CNC4CC5CCC(C4)O5)[C@@H](CC#N)C3)n1)COC(c1cccc3ccccc13)C2` (stereo partly drawn) [Example 3, 2-((2S)-1-((E)-4-((8-oxa-bicyclo[3.2.1]octan-3-yl)-amino)but-2-enoyl)-4-(2-(((S)-1-methylpyrrolidin-2-yl)methoxy)-7-(naphthalen-1-yl)-7,8-dihydro-5H-pyrano[4,3-d]pyrimidin-4-yl)piperazin-2-yl)acetonitrile]: the values for the IC50 (in assay [1]; in assay [2]; in the assay on MIA PaCa-2 cells) were 5.22 nM, 11500 nM and 100 nM, respectively.

On to `COC1CCN(C/C=C/C(=O)N2CCN(c3nc(OC[C@@H]4CCCN4C)nc4c3COC(c3cccc5ccccc35)C4)C[C@@H]2CC#N)CC1` (stereo partly drawn) [Example 4, 2-((2S)-1-((E)-4-(4-methoxy-piperidin-1-yl)but-2-enoyl)-4-(2-(((S)-1-methylpyrroli-din-2-yl)methoxy)-7-(naph-thalen-1-yl)-7,8-dihydro-5H-pyrano[4,3-d]pyrimidin-4-yl)piperazin-2-yl)acetonitrile], for which the IC50 in assay [1] was 7.19 nM; in assay [2] it was 9580 nM; with MIA PaCa-2 cells, 333 nM.

Consider `COC1CCN(C/C=C/C(=O)N2CCN(c3nc(OC[C@@H]4CCCN4C)nc4c3COC(c3cccc5cccc(Br)c35)C4)C[C@@H]2CC#N)CC1` (stereo partly drawn) [Example 5, 2-((2S)-4-(7-(8-bromonaph-thalen-1-yl)-2-(((S)-1-meth-ylpyrrolidin-2-yl)methoxy)-7,8-dihydro-5H-pyrano[4,3-d]pyrimidin-4-yl)-1-((E)-4-(4-methoxypiperidin-1-yl)-but-2-enoyl)piperazin-2-yl)-acetonitrile], for which the IC50 in assay [1] was determined as 2.63 nM; in assay [2] it was 2820 nM; in the assay with MIA PaCa-2 cells it was 177 nM.

For the molecule `C#Cc1cccc2cccc(C3Cc4nc(OCC5(CN6CCOCC6)CC5)nc(N5CCN(C(=O)/C=C/CN6CCC(OC)CC6)[C@@H](CC#N)C5)c4CO3)c12` (stereo partly drawn) [Example 6, 2-((2S)-4-(7-(8-ethynylnaph-thalen-1-yl)-2-((1-(morpho-linomethyl)cyclopropyl)-methoxy)-7,8-dihydro-5H-pyrano[4,3-d]pyrimidin-4-yl)-1-((E)-4-(4-methoxy-piperidin-1-yl)but-2-enoyl)-piperazin-2-yl)acetonitrile], the IC50 in assay [1] was 15.4 nM; in assay [2], 1260 nM; in the assay on MIA PaCa-2 cells, 268 nM.

On to `C#Cc1cccc2cc(O)cc([C@@H]3Cc4nc(OC[C@@H]5CCCN5C)nc(N5CCN(C(=O)/C=C/CN6CCC(OC)CC6)[C@@H](CC#N)C5)c4CO3)c12` [Example 7, 2-((S)-4-((S)-7-(8-ethynyl-3-hydroxynaphthalen-1-yl)-2-(((S)-1-methylpyrrolidin-2-yl)methoxy)-7,8-dihydro-5H-pyrano[4,3-d]pyrimidin-4-yl)-1-((E)-4-(4-methoxy-piperidin-1-yl)but-2-enoyl)-piperazin-2-yl)acetonitrile], for which the IC50 in assay [1] was determined as 0.88 nM; in assay [2], 50.6 nM; with MIA PaCa-2 cells it was 4.36 nM.

In the case of `C#Cc1cccc2cc(O)cc([C@@H]3Cc4nc(OC[C@@H]5CCCN5C)nc(N5CCN(C(=O)/C=C/CN[C@H]6CC[C@H](OC)CC6)[C@@H](CC#N)C5)c4CO3)c12` [Example 8, 2-((S)-4-((S)-7-(8-ethynyl-3-hydroxynaphthalen-1-yl)-2-(((S)-1-methylpyrrolidin-2-yl)methoxy)-7,8-dihydro-5H-pyrano[4,3-d]pyrimidin-4-yl)-1-((E)-4-(((1r,4S)-4-methoxycyclohexyl)amino)-but-2-enoyl)piperazin-2-yl)-acetonitrile], the IC50 in assay [1] came out at 0.54 nM; in assay [2], 64.4 nM; in the assay on MIA PaCa-2 cells it was 6.4 nM.

For `C#Cc1cccc2cc(O)cc(C3Cc4nc(OC[C@@H]5CCCN5C)nc(N5CCN(C(=O)/C=C/CN[C@H]6CC[C@H](OC)CC6)[C@@H](CC#N)C5)c4CO3)c12` (stereo partly drawn) [Example 9, 2-((2S)-4-(7-(8-ethynyl-3-hydroxynaphthalen-1-yl)-2-(((S)-1-methylpyrrolidin-2-yl)methoxy)-7,8-dihydro-5H-pyrano[4,3-d]pyrimidin-4-yl)-1-((E)-4-(((1r,4S)-4-methoxycyclohexyl)amino)-but-2-enoyl)piperazin-2-yl)-acetonitrile], the figures for the IC50 (in assay [1]; in assay [2]; in the assay with MIA PaCa-2 cells) were 1.27 nM, 133 nM and 40.4 nM, respectively.
